Data taken from US20230107195A1, “TREATMENT OF CANCER WITH SMG1-INHIBITORS” (Celgene Corporation, priority 2017, published 2023).
“Also recorded” adds a separate entry of the source.

Experiments:
DNA-PK = biological target: T1, DNA-PK (Homo sapiens, UniProt P78527); experiment: ActivX KiNativ assay (probe binding, LC-MS); conditions: 0.3 μM and 1.0 μM dose, 1 h, four different cell lines
T1 construct: lysates were prepared from cell pellets and incubated with ADP and ATP probes; endogenous in cells
Procedure: (§1) After 1 h, the medium was aspirated; cells were rinsed once with ice cold PBS, scraped off and transferred to a 15 ml conical tube. Cells were pelleted by centrifugation, the supernatant was discarded and pellets were frozen on dry ice and stored at −80° C. KiNativ assay: Briefly, lysates were prepared from cell pellets and incubated with ADP and ATP probes. After a tryptic digest, the probe labeled peptides were characterized and quantified using targeted Liquid Chromatography-Mass Spectrometry (LC-MS). Percent inhibition is defined as the reduction of probe binding in the presence of compound, indicating binding of the compound to the kinase.

SMG1 [1] = biological target: T2, SMG1 (Homo sapiens, UniProt Q96Q15); experiment: ActivX KiNativ assay (probe binding, LC-MS); conditions: 0.3 μM and 1.0 μM dose, 1 h, four different cell lines
T2 construct: endogenous in cells; host or cells: HCT-116 parental and HCT-116 DNA-PK-/- cells
T2 sequence (Q96Q15 whole entry): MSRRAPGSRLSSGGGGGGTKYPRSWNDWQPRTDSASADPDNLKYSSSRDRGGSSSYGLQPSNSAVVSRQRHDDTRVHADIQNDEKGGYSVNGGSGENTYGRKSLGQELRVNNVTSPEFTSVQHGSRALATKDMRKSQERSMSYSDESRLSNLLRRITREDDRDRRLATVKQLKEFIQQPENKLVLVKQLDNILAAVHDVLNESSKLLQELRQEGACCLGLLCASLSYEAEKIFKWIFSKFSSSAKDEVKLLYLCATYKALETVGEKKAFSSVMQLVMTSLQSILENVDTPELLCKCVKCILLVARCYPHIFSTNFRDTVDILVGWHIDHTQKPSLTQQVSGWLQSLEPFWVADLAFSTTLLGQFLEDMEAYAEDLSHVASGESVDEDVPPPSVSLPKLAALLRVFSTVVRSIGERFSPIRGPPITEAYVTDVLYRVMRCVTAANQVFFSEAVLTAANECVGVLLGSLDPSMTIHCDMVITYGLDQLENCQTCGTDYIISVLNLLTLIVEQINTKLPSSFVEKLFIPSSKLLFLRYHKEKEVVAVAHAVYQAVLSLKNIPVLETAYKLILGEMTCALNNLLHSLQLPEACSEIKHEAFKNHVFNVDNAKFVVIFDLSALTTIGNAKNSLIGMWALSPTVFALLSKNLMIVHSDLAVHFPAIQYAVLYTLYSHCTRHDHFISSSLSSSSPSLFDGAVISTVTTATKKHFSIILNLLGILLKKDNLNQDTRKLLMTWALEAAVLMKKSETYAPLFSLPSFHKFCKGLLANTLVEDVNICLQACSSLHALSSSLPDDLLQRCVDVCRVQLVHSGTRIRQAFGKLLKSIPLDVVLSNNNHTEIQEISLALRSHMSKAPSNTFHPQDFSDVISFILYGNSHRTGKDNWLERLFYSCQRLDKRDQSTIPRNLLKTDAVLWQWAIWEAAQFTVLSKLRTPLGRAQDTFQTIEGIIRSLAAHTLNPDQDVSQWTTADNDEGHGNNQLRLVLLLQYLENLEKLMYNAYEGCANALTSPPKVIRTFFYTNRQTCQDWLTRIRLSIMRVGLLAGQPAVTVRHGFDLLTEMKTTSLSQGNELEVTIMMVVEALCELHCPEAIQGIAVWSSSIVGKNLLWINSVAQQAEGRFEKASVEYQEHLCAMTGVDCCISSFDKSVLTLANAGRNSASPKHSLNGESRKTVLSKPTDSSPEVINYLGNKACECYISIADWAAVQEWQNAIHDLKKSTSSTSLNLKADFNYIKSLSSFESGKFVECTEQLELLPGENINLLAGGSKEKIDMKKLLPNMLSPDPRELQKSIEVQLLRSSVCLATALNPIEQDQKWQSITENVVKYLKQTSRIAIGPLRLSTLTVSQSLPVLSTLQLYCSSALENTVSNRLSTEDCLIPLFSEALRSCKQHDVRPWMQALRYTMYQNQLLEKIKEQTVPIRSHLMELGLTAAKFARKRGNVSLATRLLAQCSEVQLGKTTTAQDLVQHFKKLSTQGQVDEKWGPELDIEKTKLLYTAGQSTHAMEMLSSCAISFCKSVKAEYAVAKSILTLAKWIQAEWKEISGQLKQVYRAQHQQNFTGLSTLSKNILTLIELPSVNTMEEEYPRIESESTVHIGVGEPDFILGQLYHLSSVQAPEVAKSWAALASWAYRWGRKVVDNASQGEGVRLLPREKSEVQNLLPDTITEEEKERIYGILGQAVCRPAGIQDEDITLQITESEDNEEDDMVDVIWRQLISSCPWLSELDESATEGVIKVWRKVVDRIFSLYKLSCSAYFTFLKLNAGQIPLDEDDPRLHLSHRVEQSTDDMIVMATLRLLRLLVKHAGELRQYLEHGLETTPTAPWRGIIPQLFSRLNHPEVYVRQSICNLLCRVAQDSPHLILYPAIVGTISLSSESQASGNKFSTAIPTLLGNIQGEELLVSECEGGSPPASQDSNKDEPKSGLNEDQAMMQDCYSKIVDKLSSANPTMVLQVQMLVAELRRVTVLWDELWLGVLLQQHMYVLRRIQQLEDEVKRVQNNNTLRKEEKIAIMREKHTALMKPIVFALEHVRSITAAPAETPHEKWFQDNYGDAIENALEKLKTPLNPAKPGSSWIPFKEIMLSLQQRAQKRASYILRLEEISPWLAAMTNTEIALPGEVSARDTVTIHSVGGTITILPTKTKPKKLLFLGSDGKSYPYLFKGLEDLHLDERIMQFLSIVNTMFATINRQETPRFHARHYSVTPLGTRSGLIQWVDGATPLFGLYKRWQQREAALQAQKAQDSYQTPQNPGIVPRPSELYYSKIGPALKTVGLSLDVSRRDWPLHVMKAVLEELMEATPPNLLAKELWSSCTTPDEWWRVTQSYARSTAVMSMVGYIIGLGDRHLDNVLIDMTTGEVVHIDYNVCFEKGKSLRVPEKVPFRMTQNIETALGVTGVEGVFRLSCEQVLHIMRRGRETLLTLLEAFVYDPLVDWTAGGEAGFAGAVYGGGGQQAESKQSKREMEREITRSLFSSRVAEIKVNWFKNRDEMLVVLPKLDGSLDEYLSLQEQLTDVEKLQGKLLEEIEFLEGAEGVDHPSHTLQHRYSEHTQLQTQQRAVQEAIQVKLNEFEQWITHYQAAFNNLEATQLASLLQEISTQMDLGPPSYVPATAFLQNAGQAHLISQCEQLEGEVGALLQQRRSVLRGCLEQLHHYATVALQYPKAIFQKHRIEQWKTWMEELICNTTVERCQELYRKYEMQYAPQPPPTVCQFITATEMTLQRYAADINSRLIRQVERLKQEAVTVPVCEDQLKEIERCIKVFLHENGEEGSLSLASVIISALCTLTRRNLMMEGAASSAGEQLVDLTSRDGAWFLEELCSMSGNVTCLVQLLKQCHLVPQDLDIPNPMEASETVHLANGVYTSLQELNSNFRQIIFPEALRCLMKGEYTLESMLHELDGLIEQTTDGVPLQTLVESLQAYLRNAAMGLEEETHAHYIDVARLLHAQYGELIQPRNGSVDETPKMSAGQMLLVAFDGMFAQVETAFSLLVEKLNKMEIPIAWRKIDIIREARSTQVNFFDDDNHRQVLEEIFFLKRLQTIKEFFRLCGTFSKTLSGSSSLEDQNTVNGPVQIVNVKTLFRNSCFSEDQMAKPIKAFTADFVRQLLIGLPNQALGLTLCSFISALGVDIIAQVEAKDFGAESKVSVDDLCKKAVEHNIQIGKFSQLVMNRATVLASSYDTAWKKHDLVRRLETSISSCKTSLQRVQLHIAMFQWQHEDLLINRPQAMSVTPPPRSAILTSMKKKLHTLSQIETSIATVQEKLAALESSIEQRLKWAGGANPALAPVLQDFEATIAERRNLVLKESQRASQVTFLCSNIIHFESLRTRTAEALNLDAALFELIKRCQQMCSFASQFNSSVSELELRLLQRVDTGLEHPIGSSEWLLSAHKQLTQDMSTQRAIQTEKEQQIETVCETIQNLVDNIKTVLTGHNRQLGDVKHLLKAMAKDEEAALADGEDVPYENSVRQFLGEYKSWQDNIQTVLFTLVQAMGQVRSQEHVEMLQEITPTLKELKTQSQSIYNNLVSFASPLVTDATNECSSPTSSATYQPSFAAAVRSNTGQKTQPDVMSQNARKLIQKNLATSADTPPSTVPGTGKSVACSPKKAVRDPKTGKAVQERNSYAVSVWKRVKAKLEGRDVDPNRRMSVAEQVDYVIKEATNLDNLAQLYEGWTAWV
Procedure: as §1

SMG1 [2] = biological target: T2, SMG1; experiment: Western blot for marker of SMG1 inhibition (pATM/ATR substrate band colocalizing with UPF1) in HCT-116 cells; format: cell-based; conditions: parental and DNAPK−/− HCT116 cells
Text: SDS-PAGE and Western blot: Equal amounts of protein were subjected to SDS-PAGE using 3-8% tris-acetate protein gels (Thermo Fisher Scientific #A03755BOX, for DNA-PK, SMG1 and vinculin detection) and 4-12% bis-tris protein gels (Thermo Fisher Scientific #NP0323BOX, for phospho-(Ser/Thr) ATM/ATR substrate, UPF1, GAPDH, S6, phospho-4E-BP1, and cofilin detection). Proteins were electrophoretically transferred to 0.2 μm nitrocellulose membranes (Thermo Fisher Scientific #LC2000) and blocked for 1 hour with Odyssey Blocking Buffer TBS (LI-COR #927-50000). Membranes from 3-8% tris-acetate gels were incubated overnight with antibodies against total DNA-PK (Cell Signaling #12311), phospho DNA-PK (Ser2056) (Abcam #ab124918), total SMG1 (Cell Signaling #9149) and vinculin (Sigma #V9264). Membranes from 4-12% bis-tris gels were incubated overnight with antibodies against phospho-(Ser/Thr) ATM/ATR substrate (Cell Signaling #2851), total UPF1 (Sigma #SAB 1402893), GAPDH (Santa Cruz #47724), total S6 Ribosomal Protein (Santa Cruz #74459), phosphoS6 Ribosomal Protein (Ser240/244) (Cell Signaling #5364), phospho-4E-BP1 (Thr70) (Cell Signaling #9455), and cofilin (Santa Cruz #376476). Membranes were washed with TBST and incubated with IRDye 800CW Goat anti-Rabbit IgG (LI-COR #926-32211) and IRDye 680LT Goat anti-Mouse IgG (LI-COR #926-68020) secondary antibodies for 1 hour. […]

TORK [3] = biological target: T3, TORK (Homo sapiens, UniProt P42345); experiment: Western blot for markers of TORK inhibition (pS6 and p4EBP1) in HCT-116 cells; format: cell-based; conditions: parental and DNAPK−/− HCT116 cells
TORK [4] = biological target: T3, TORK; experiment: ActivX KiNativ assay (probe binding, LC-MS); parameters: lysates were prepared from cell pellets and incubated with ADP and ATP probes; endogenous in cells; conditions: 0.3 μM and 1.0 μM dose, 1 h, four different cell lines

binding to DNA-PK (% inhibition of probe binding) (DNA-PK): only binds TORK
binding to SMG1 (% inhibition of probe binding) (SMG1 [1]): only binds TORK
binding to TORK (% inhibition of probe binding) (TORK [4]): only binds TORK
SMILES: CO[C@H]1CC[C@H](N2C(=O)CNc3ncc(-c4ccc(C(C)(C)O)nc4)nc32)CC1 [Compound 2, 7-(6-(2-hydroxypropan-2-yl)pyridin-3-yl)-1-((trans)-4-methoxycyclohexyl)-3,4-dihydropyrazino[2,3-b]pyrazin-2(1H)-one]
marker of SMG1 inhibition (pATM/ATR substrate, pUPF1) (SMG1 [2]): binds to TORK (pS6 and p4EBP1) only; also recorded: not by Compound 2
markers of TORK inhibition (pS6 and p4EBP1) (TORK [3]): binds to TORK (pS6 and p4EBP1) only; also recorded: reduced
